What all share (assay): Greenhouse bioassay for resistance to ALS-inhibiting herbicides (dry matter, visual injury)
Common to all, as to format: in vivo, Shattercane (Sorghum bicolor subsp. X drummondii)

The subject of experiment [1] is shattercane biotype P8-30 (Mutant C). Conditions: for resistance of the biotype to the herbicide: biotype P8-30 (Mutant C), relative to the wild-type, dry matter and visual ratings; for growth reduction: biotype P8-30, growth in the three weeks after herbicide application. Here is the method:
(§1) The bioassay experiment was conducted in a greenhouse on the East Campus of the University of Nebraska-Lincoln, in Lincoln, Nebr. The experimental design was a randomized complete block. Shattercane seed was planted in 0.9 L square plastic pots in Miracle-Gro® Moisture Control® Potting Mix (The Scotts Company LLC, Marysville, Ohio). The photoperiod was 15/9 light/dark with supplemental light provided by sodium halide lamps. Greenhouse temperatures were maintained at 24±2 C (day) and 19±2 C (night). Shattercane was thinned to 1 plant per pot when it reached the 2 leaf stage. Herbicide treatments (Table 1 in Appendix I) were applied when the shattercane reached the V4 growth stage and was approximately 12 cm tall. Individual plants ranged from growth stage V3 to V5, and in height from 7 to 19 cm. At least one tiller had formed on most plants by the time of application. Herbicides were applied using an 8001 even flat fan nozzle at 207 kPa in a single-tip track sprayer located in the greenhouse facility. The application rate was 187 l/ha, and treatment solutions were prepared in distilled water. Visual injury ratings were made 7, 14 and 21 days after treatment on a scale of 0 to 100, where 0 represents no injury and 100 represents plant death. At 21 DAT, plants were harvested at the soil surface, dried for 48 h at 70 C, and weighed to determine dry matter. Dry matter data for each experimental unit was divided by the average dry matter of the untreated control plants of that biotype and multiplied by 100 to determine relative percent biomass to the untreated control. Dry matter data for each experimental unit was also divided by the average dry matter data of the glyphosate-treated plants of that biotype to determine growth in the three weeks after herbicide application. Data were subjected to ANOVA using Proc GLM of SAS 9.1 (SAS Institute Inc., Cary, N.C.). The Run by Herbicide by Population interaction was significant for each variable, so runs were analyzed separately. The Herbicide by Population interaction was also significant for each run and each variable, so data were analyzed by herbicide to describe differences among the populations. Treatment means were separated using Duncan's Multiple Range test.

The test system of experiment [2] is shattercane biotype P9-102 (Mutant B). Conditions: dry matter and visual ratings. How it is done:
as §1

Experiment [3] deals with shattercane biotype P2-205 (Mutant A). Conditions: dry matter and visual ratings. How it is done: as §1
Experiment [4] relates to wild type shattercane. Conditions: wild type biotype, plants harvested 21 DAT. How it is done:
as §1

Experiment [5] relates to shattercane biotype 5-4Farm (Mutant D). Conditions: plants harvested 21 DAT. How it is done: as §1

Take `CC(C)C1(C)N=C(c2nc3ccccc3cc2C(=O)O)NC1=O` (stereo not drawn) [Imazaquin]: the “resistance of the biotype to the herbicide” value (“resistance of the biotype” for short) in experiment [1] is listed as “resistance”.

As for `CCc1cnc(C2=NC(C)(C(C)C)C(=O)N2)c(C(=O)O)c1` (stereo not drawn) [Imazethapyr], the “resistance of the biotype” value in experiment [1] was “resistance”.

For the compound `COc1cc(OC)nc(Oc2cccc(Oc3nc(OC)cc(OC)n3)c2C(=O)O)n1` [bispyribac], the “resistance of the biotype” value was “partial resistance” in experiment [1] and “resistance” in experiment [1] (listed as Bispyribac). Besides, the growth reduction entry in experiment [1] is recorded as “approximately 65%”.

As to `COc1nc(C)nc(NC(=O)NS(=O)(=O)c2ccccc2Cl)n1` [chlorsulfuron], the “resistance of the biotype” value in experiment [2] is “resistance”; in experiment [1], “resistance”; in experiment [3], “resistant”; in experiment [3] (listed as Chlorsulfuron), “resistance”.

With `COc1cc(OC)nc(NC(=O)NS(=O)(=O)c2cc(NC=O)ccc2C(=O)N(C)C)n1` [foramsulfuron], the “resistance of the biotype” value in experiment [2] is recorded as “resistant”; in experiment [2] (listed as Foramsulfuron), “resistance”; in experiment [1], “resistance”; in experiment [3], “partially resistant”; in experiment [3] (listed as Foramsulfuron), “resistance”.

In the case of `COCc1cnc(C2=NC(C)(C(C)C)C(=O)N2)c(C(=O)O)c1` (stereo not drawn) [imazamox], the “resistance of the biotype” value is given as “resistance” in experiment [1], “partially resistant” in experiment [3] and “resistance” in experiment [3] (listed as Imazamox).

On to `COc1cc(OC)nc(NC(=O)NS(=O)(=O)c2ncccc2C(=O)N(C)C)n1` [nicosulfuron], for which the “resistance of the biotype” value in experiment [2] was “resistant”; in experiment [1], “resistance”.

With `COc1cnc(OC)n2nc(NS(=O)(=O)c3c(OCC(F)F)cccc3C(F)(F)F)nc12` [penoxsulam], the “effect on dry matter” value in experiment [4] and in experiment [5] was “did not reduce dry matter” throughout.

In the case of `O=C(Nc1nc(OC(F)F)cc(OC(F)F)n1)NS(=O)(=O)c1ccccc1C(=O)O` [primisulfuron], the “resistance of the biotype” value was “partially resistant” in experiment [2]; “resistance” in experiment [2] (listed as Primisulfuron); “resistance” in experiment [1]; “partially resistant” in experiment [3]; “resistance” in experiment [3] (listed as Primisulfuron).

As for `CCCOc1nn(C(=O)[N-]S(=O)(=O)c2ccccc2C(=O)OC)c(=O)n1C.[Na+]` [propoxycarbazone], the “resistance of the biotype” value is reported as “resistant” in experiment [2]; “resistance” in experiment [2] (listed as Propoxycarbazone); “resistance” in experiment [1]; “resistant” in experiment [3]; “resistance” in experiment [3] (listed as Propoxycarbazone).

With `CCS(=O)(=O)c1cccnc1S(=O)(=O)NC(=O)Nc1nc(OC)cc(OC)n1` [rimsulfuron], the “resistance of the biotype” value in experiment [1] is “partial resistance”; in experiment [1] (listed as Rimsulfuron), “resistance”. The compound further came in with a growth reduction in experiment [1] of roughly 84%.

Take `COc1nn(C(=O)NS(=O)(=O)c2c(C(=O)O)csc2C)c(=O)n1C` [thiencarbazone]: the “resistance of the biotype” value in experiment [2] is “partially resistant”; in experiment [2] (listed as Thiencarbazone), “resistance”; in experiment [1], “resistance”; in experiment [3], “partially resistant”; in experiment [3] (listed as Thiencarbazone), “resistance”.

The values are drawn from patent US9365862B1, “Herbicide resistant sorghum mutants” (NUtech Ventures, priority 2011, dated 2016).
